Ends that are not written are not given here.
Assays:
Format in all cases: cell-based, human
[1] = test system: Hippo pathway related proteins YAP and TAZ in the nucleus; assay: Immunoblotting of Hippo pathway related proteins YAP and TAZ in the nucleus; details: B16 cells, FLM with Compound 1 versus FLM without Compound 1, 12 days; FIG. 10
Experimental: Freshly isolated primary lung cancer epithelial cell sample (No. B16) was obtained according to the steps described in Example 1. Then, the primary epithelial cells were inoculated onto a 6-well plate coated with Matrigel™. 3 mL of the culture medium FLM and 3 mL of the culture medium FLM without Compound 1 were respectively added to the wells inoculated with the aforementioned epithelial cells. The plate was placed in a 37° C., 5% CO2 incubator (purchased from Thermo Fisher) for culture. The culture mediums were changed every 4 days during the culture process. After 12 days of cultivation, cells of each group were collected and the […] of Compound 1 on Hippo pathway related proteins YAP and TAZ in the nucleus was detected using conventional immunoblotting method. Yes associated protein (YAP) and its homologous transcriptional co-activator PDZ-binding motif (TAZ) are key effectors in the Hippo pathway that control cell growth and organ size, and their dysregulation may lead to tumor development or hypertrophy. After activation, YAP/TAZ translocate to the nucleus and bind to TEAD transcription factors, promoting cell proliferation or regulated transcription process.

[2] = test system: lung cancer epithelial cells (Sample No. B26); assay: Effects of different concentrations of the additive factors on proliferation of primary lung cancer cells; details: added to No. 8 medium lacking the factor; cell number ratio to Blank Control; FIGS. 3A-3H
Experimental: (§1) Extracellular matrix gel (Matrigel®) was diluted with serum-free DMEM/F12 medium at a ratio of 1:100 to prepare an extracellular matrix diluent. The extracellular matrix diluent was added to a 48-well culture plate with 200 μl/well to completely cover the bottom of the wells of the culture plate. The culture plate was let stand for 1 hour in a 37° C. incubator. After 1 hour, the extracellular matrix diluent was removed to provide a Matrigel-coated plate.
No. 8 culture medium for primary lung cancer epithelial cells was prepared.
Lung cancer epithelial cells derived from cancer tissues were isolated from the cancer tissue of a lung cancer patient (Sample No. B26) using the same method as in Example 1. Next, lung cancer epithelial cells derived from cancer tissues were counted with a flow imaging counter (JIMBIO FIL, Jiangsu Jimbio Technology Co., Ltd.) to get the total number of cells. Then, the cells were inoculated at a density of 4×10^4 cells/cm^2 in a 48-well plate which was coated with Matrigel®. […] of the prepared No. 8 culture medium for primary lung cancer epithelial cells was added to the 48-well plate, which was then placed in a 37° C., 5% CO2 incubator (purchased from Thermo Fisher) for culture. When the cells in the culture plate grew to cover about 80% of the bottom area, the supernatant of medium in the 48-well plate was discarded and 500 μl of 0.05% trypsin (purchased from Gibco) was added for cell digestion, which was then incubated at 37° C. for 10 minutes, until the cells were completely digested as observed under a microscope (EVOS M500, Invitrogen); then the digestion was terminated by using 1 ml of DMEM/F12 culture solution containing 5% (v/v) fetal bovine serum (purchased from ExCell Bio), 100 U/ml penicillin (purchased from Corning), and […] streptomycin (purchased from Corning); the resultant was collected into a 15 ml centrifuge tube and centrifuged at 1500 rpm for 4 minutes, and then the supernatant was discarded. The centrifuged cell pellet was resuspended in the basic medium BM and the cells were counted with a flow imaging counter (JIMBIO FIL, Jiangsu Jimbio Technology Co., Ltd.) to get the total number of cells. The obtained cells were used in the following cultivation experiments.
Next, the following 8 formulations of culture medium were prepared for experiments: • Formulation 1: No. 8 culture medium composition without B27 additive; • Formulation 2: No. 8 culture medium composition without fibroblast growth factor; • Formulation 3: No. 8 culture medium composition without transferrin; • Formulation 4: No. 8 culture medium composition without epidermal growth factor; • Formulation 5: No. 8 culture medium composition without Y27632; • Formulation 6: No. 8 culture medium composition without Compound 1; • Formulation 7: No. 8 culture medium composition without A83-01; • Formulation 8: No. 8 culture medium composition without gastrin.
The digested cell suspension was diluted with the above Formulations 1-8 respectively, and then inoculated into a 48-well plate at a volume of 250 μl with 10,000 cells per well.
When using the medium of Formulation 1, to a 48-well plate inoculated with primary cells was added the prepared B27 additive, with 250 μl per well, the final concentrations of B27 additive were 1:800, 1:400, 1:200, 1:100, 1:50, 1:25, respectively; a well of Blank Control (BC) was set using the medium of Formulation 1.
When using the medium of Formulation 2, to a 48-well plate inoculated with primary cells was added the prepared fibroblast growth factor, with 250 μl per well, the final concentrations of fibroblast growth factor were 80 ng/ml, 40 ng/ml, 20 ng/ml, 10 ng/ml, 5 ng/ml, 2.5 ng/ml, respectively; a well of Blank Control (BC) was set using the medium of Formulation 2. […]

[3] = test system: lung cancer cells (No. B18); assay: Effects of different factors added to basic medium BM on proliferation of primary lung cancer cells; details: factor added to BM at the concentrations of Table 3; 12 days of culture; FIGS. 1A-1D
Experimental: as §1, with “(Matrigel®) (manufactured by Corning)” for “(Matrigel®)”, “500” for “200”
Preparation of basic medium (abbreviated as BM): BM was prepared by adding 0.2 vol. % of Primocin (purchased from Invivogen, with a concentration of 50 mg/ml) to the commercial DMEM/F-12 medium to provide a final concentration of 100 μg/ml.
Next, different kinds and concentrations of additive factors (Table 3) were added to the basic medium (BM), so as to prepare culture mediums for lung cancer epithelial cells containing different additive components.
The culture mediums with different components were added at a volume of 500 μl/well to 48-well plates which were coated with extracellular matrix gel (Matrigel). Lung cancer cells (No. B18) isolated from lung cancer tissues according to the same method as described in Example 1 were inoculated at a cell density of 2×10^4 cells/cm^2 in the above-mentioned 48-well culture plates which were coated with Matrigel. After surface disinfection, the plates were placed in a 37° C., 5% CO2 incubator (purchased from Thermo Fisher), and the same number of freshly isolated lung cancer tumor cells (No. B18) were cultured under different medium formulations. The culture mediums were replaced every 4 days after the start of culture. After 12 days of culture, cell counts were performed. The basic medium (BM) without addition of any additive factor was used as a control. The ordinate in the figures represents the ratio of the number of cells obtained after culture in different mediums to the number of cells obtained after culture in basic medium BM.

Compound | expression of YAP and TAZ proteins in the nucleus [1] | amount in the culture medium, most preferably [2] | effect on cell proliferation (ratio of number of cells to that in basic medium BM) [3]
CN1C(=O)C(c2c(F)cccc2F)N(C)c2nc(Nc3ccc(S(N)(=O)=O)cc3)ncc21 (stereo not shown) [Compound 1, 4-((7-(2,6-Difluorophenyl)-5,8-dimethyl-6-oxo-5,6,7,8-tetrahydropteridin-2-yl)amino)benzsulfamide] | significant increase | 5 µM | certain promoting effects on cell proliferation in specific concentration ranges
Cc1cccc(-c2nn(C(=S)Nc3ccccc3)cc2-c2ccnc3ccccc23)n1 [Compound A83-01, reference compound] | – | 0.5 µM | certain promoting effects on cell proliferation in specific concentration ranges
C[C@@H](N)[C@H]1CC[C@H](C(=O)Nc2ccncc2)CC1 [Compound Y27632, reference compound] | – | 10 µM | certain promoting effects on cell proliferation in specific concentration ranges
fibroblast growth factor | – | 10 ng/mL | certain promoting effects on cell proliferation in specific concentration ranges
gastrin: additive factor from Sino Biological Inc. (QGPWLEEEEEAYGWMDF; ends and bridges not checked; UniProt P01350 76-92, looked up) | – | 10 ng/mL | certain promoting effects on cell proliferation in specific concentration ranges
transferrin: additive factor from Sino Biological Inc. | – | 20 ng/mL | certain promoting effects on cell proliferation in specific concentration ranges
